IC50 data for 22 molecules are collected here from US12692254B2, “Benzimidazole inhibitors of PAD enzymes” (BRISTOL-MYERS SQUIBB COMPANY, priority 2018, dated 2026).

In the assay the target is human PAD4 (hPAD4) (Homo sapiens, UniProt Q9UM07). As to the kind of experiment: RFMS human PAD4 functional assay (rapid-fire mass spectrum). Format: biochemical. As to conditions: 5 nM hPAD4 enzyme, 250 μM BAEE, 50 μM Calcium; 30 min preincubation, 90 min reaction at 37° C. The procedure, abridged: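 PAD4 (10 nM) preincubated 30 min with compound (top final 50 μM), then BAEE substrate added in pH 7.5 HEPES buffer with DTT, 50 μM calcium, TPEN; 90 min at 37° C. After TCA quench, citrulline derivatized with phenyl glyoxal (4 mM final, 30 min, 37° C) and quantified by RapidFire MS against internal standard.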
Chain of human PAD4 (hPAD4) (Q9UM07 whole entry): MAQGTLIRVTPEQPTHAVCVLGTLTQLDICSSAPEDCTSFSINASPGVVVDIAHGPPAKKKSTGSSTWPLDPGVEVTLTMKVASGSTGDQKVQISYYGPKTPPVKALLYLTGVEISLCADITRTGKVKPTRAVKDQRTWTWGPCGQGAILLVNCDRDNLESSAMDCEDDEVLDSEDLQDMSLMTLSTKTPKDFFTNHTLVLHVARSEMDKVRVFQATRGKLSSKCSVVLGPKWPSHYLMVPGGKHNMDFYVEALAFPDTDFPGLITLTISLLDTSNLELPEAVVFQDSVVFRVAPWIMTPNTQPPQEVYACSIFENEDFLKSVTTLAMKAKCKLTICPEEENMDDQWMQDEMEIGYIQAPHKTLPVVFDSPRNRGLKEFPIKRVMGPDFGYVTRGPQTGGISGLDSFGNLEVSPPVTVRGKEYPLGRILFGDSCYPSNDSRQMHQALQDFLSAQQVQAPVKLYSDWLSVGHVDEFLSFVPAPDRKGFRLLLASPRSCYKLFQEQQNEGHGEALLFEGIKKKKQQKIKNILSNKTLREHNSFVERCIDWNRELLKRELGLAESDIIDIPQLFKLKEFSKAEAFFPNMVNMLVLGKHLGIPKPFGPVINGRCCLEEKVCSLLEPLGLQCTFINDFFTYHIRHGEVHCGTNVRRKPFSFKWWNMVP

What is called IC50 is the concentration that inhibits the measured activity by half. For the molecule `COc1cc(C(=O)N2C[C@H]3CC[C@@H]2[C@@H]3N)cc2nc(-c3cc4ccccc4n3CC3CC3)n(CC3CN(C(=O)c4ccc(O)cc4)C3)c12` [Example 140, 4-[3-({5-[(1R,4R,7R)-7-amino-2-azabicyclo[2.2.1]heptane-2-carbonyl]-2-[1-(cyclopropylmethyl)-1H-indol-2-yl]-7-methoxy-1H-1,3-benzodiazol-1-yl}methyl)azetidine-1-carbonyl]phenol], the IC50 is 0.014 µM.
For the molecule `N#Cc1ccc(C(=O)N2CC(Cn3c(-c4cc5ccccc5n4CC4CC4)nc4cc(C(=O)N5C[C@H]6CC[C@@H]5[C@@H]6N)cc(Cl)c43)C2)cc1` [Example 150, 4-[3-({5-[(1R,4R,7R)-7-amino-2-azabicyclo[2.2.1]heptane-2-carbonyl]-7-chloro-2-[1-(cyclopropylmethyl)-1H-indol-2-yl]-1H-1,3-benzodiazol-1-yl}methyl)azetidine-1-carbonyl]benzonitrile], the IC50 was 0.02 µM.
With `COc1cc(C(=O)N2C[C@H]3CC[C@@H]2[C@@H]3N)cc2nc(-c3cc4cccnc4n3CC3CC3)n(CC3CN(C(=O)c4ccncn4)C3)c12` [Example 111, (1R,4R,7R)-2-{2-[1-(cyclopropylmethyl)-1H-pyrrolo[2,3-b]pyridin-2-yl]-7-methoxy-1-{[1-(pyrimidine-4-carbonyl)azetidin-3-yl]methyl}-1H-1,3-benzodiazole-5-carbonyl}-2-azabicyclo[2.2.1]heptan-7-amine] the figure was 0.051 µM.
With `N[C@@H]1C2CCC1N(C(=O)c1cc(F)c3c(c1)nc(-c1cc4cccnc4n1CC1CC1)n3CC1CN(C(=O)c3ccccc3)C1)C2` (stereo partly drawn) [Example 439, (7R)-2-{1-[(1-benozylazetidin-3-yl)methyl]-2-[1-(cyclopropylmethyl)-1H-pyrrolo[2,3-b]pyridin-2-yl]-7-fluoro-1H-1,3-benzodiazol-5-carbonyl}-2-azabicyclo[2.2.1]heptan-7-amine] the figure was 0.036 µM; with `COc1cc(C(=O)N2C[C@H](N)C[C@@H](F)C2)cc2nc(-c3cc4ccccc4n3CC3CC3)n(CC3CC(F)(F)C3)c12` [Example 477, (3R,5R)-1-{2-[1-(cyclopropylmethyl)-1H-indol-2-yl]-1-[(3,3-difluorocyclobutyl)methyl]-7-methoxy-1H-1,3-benzodiazole-5-carbonyl}-5-fluoropiperidin-3-amine], 0.142 µM.
With `COc1cc(C(=O)N2C[C@H]3CC[C@@H]2[C@@H]3N)cc2nc(-c3cc4ccccc4n3CC3CC3)n(CC3CN(C(=O)c4cccc(C#N)c4)C3)c12` [Example 141, 3-[3-({5-[(1R,4R,7R)-7-amino-2-azabicyclo[2.2.1]heptane-2-carbonyl]-2-[1-(cyclopropylmethyl)-1H-indol-2-yl]-7-methoxy-1H-1,3-benzodiazol-1-yl}methyl)azetidine-1-carbonyl]benzonitrile] the figure was 0.014 µM; with `COc1cc(C(=O)N2C[C@H]3CC[C@@H]2[C@@H]3N)cc2nc(-c3cc4cccnc4n3CC3CC3)n(CC3CN(C(=O)c4cnc(NCC(C)(C)O)nc4)C3)c12` [Example 121, 1-({5-[3-({5-[(1R,4R,7R)-7-amino-2-azabicyclo[2.2.1]heptane-2-carbonyl]-2-[1-(cyclopropylmethyl)-1H-pyrrolo[2,3-b]pyridin-2-yl]-7-methoxy-1H-1,3-benzodiazol-1-yl}methyl)azetidine-1-carbonyl]pyrimidin-2-yl}amino)-2-methylpropan-2-ol], 0.095 µM.
Consider `COc1cc(N2CC(Cn3c(-c4cc5cccnc5n4CC4CC4)nc4cc(C(=O)N5C[C@H]6CC[C@@H]5[C@@H]6N)cc(OC)c43)C2)ccn1` [Example 49, (1R,4R,7R)-2-{2-[1-(cyclopropylmethyl)-1H-pyrrolo[2,3-b]pyridin-2-yl]-7-methoxy-1-{[1-(2-methoxypyridin-4-yl)azetidin-3-yl]methyl}-1H-1,3-benzodiazole-5-carbonyl}-2-azabicyclo[2.2.1]heptan-7-amine], for which the IC50 came to 0.126 µM.
For the molecule `COc1cc(C(=O)N2C[C@H](N)C[C@@H](F)C2)cc2nc(-c3cc4ccccc4n3CC3CC3)n(Cc3ccccc3)c12` [Example 282, (3R,5R)-1-{1-benzyl-2-[1-(cyclopropylmethyl)-1H-indol-2-yl]-7-methoxy-1H-1,3-benzodiazole-5-carbonyl}-5-fluoropiperidin-3-amine], the IC50 was determined as 0.78 µM.
With `COc1cc(C(=O)N2C[C@H]3CC[C@@H]2[C@@H]3N)cc2nc(-c3cc4cccnc4n3CC3CC3)n(C3CN(C(=O)c4ccncn4)C3)c12` [Example 100, (1R,4R,7R)-2-{2-[1-(cyclopropylmethyl)-1H-pyrrolo[2,3-b]pyridin-2-yl]-7-methoxy-1-[1-(pyrimidine-4-carbonyl)azetidin-3-yl]-1H-1,3-benzodiazole-5-carbonyl}-2-azabicyclo[2.2.1]heptan-7-amine] the figure was 0.117 µM; with `COC(=O)c1cccc(-n2cc(Cn3c(-c4cc5cccnc5n4CC4CC4)nc4cc(C(=O)N5C[C@H](N)C[C@@H](F)C5)cc(OC)c43)cn2)n1` [Example 364, methyl 6-[4-({5-[(3R,5R)-3-amino-5-fluoropipendine-1-carbonyl]-2-[1-(cyclopropylmethyl)-1H-pyrrolo[2,3-b]pyridin-2-yl]-7-methoxy-1H-1,3-benzodiazol-1-yl}methyl)-1H-pyrazol-1-yl]pyridine-2-carboxylate], 0.026 µM; with `COc1cc(C(=O)N2C[C@H]3CC[C@@H]2[C@@H]3N)cc2nc(-c3cc4cccnc4n3CC3CC3)n(C3CN(C(=O)c4ccc(Cl)nc4)C3)c12` [Example 99, (1R,4R,7R)-2-{1-[1-(6-chloropyridine-3-carbonyl)azetidin-3-yl]-2-[1-(cyclopropylmethyl)-1H-pyrrolo[2,3-b]pyridin-2-yl]-7-methoxy-1H-1,3-benzodiazole-5-carbonyl}-2-azabicyclo[2.2.1]heptan-7-amine], 0.111 µM.
On to `COc1cc(C(=O)N2C[C@H](N)C[C@@H](F)C2)cc2nc(-c3cc4ccccc4n3CC3CC3)n(Cc3csc(C)n3)c12` [Example 285, (3R,5R)-1-{2-[1-(cyclopropylmethyl)-1H-indol-2-yl]-7-methoxy-1-[(2-methyl-1,3-thiazol-4-yl)methyl]-1H-1,3-benzodiazote-5-carbonyl}-5-fluoropiperidin-3-amine], for which the half-maximal inhibitory concentration (IC50) stood at 1.02 µM.
With `COc1cc(C(=O)N2C[C@H]3CC[C@@H]2[C@@H]3N)cc2nc(-c3cc4cccnc4n3CC3CC3)n(CC3CCNCC3)c12` [Example 305, (1R,4R,7R)-2-{2-[1-(cyclopropylmethyl)-1H-pyrrolo[2,3-b]pyridin-2-yl]-7-methoxy-1-[(piperidin-4-yl)methyl]-1H-1,3-benzodiazole-5-carbonyl)-2-azabicyclo[2.2.1]heptan-7-amine] the figure was 0.303 µM; with `COc1cc(C(=O)N2CC3CCC2[C@@H]3N)cc2nc(-c3cc4ccccc4n3CC3CC3)n(CC3CN(C(=O)c4ncccn4)C3)c12` (stereo partly drawn) [Example 446, (7R)-2-{2-[1-(cyclopropylmethyl)-1H-indol-2-yl]-7-methoxy-1-{[1-(pyrimidine-2-carbonyl)azetidin-3-yl]methyl}-1H-1,3-benzodiazole-5-carbonyl}-2-azabicyclo[2.2.1]heptan-7-amine], 0.043 µM; with `COc1cc(C(=O)N2C[C@H]3CC[C@@H]2[C@@H]3N)cc2nc(-c3cc4cccnc4n3CC3CC3)n(CC3CN(c4ccncc4)C3)c12` [Example 57, (1R,4R,7R)-2-{2-[1-(cyclopropylmethyl)-1H-pyrrolo[2,3-b]pyridin-2-yl]-7-methoxy-1-{[1-(pyridin-4-yl)azetidin-3-yl]methyl}-1H-1,3-benzodiazole-5-carbonyl}-2-azabicyclo[2.2.1]heptan-7-amine], 0.168 µM.
With `COc1cc(C(=O)N2C[C@H]3CC[C@@H]2[C@@H]3N)cc2nc(-c3cc4cccnc4n3CC3CC3)n(CC3CN(c4ccnc(C5CC5)n4)C3)c12` [Example 105, (1R,4R,7R)-2-{2-[1-(cyclopropylmethyl)-1H-pyrrolo[2,3-b]pyridin-2-yl]-1-{[1-(2-cyclopropylpyrimidin-4-yl)azetidin-3-yl]methyl}-7-methoxy-1H-1,3-benzodiazole-5-carbonyl}-2-azabicyclo[2.2.1]heptan-7-amine] the figure was 0.031 µM; with `COc1cc(C(=O)N2C[C@H](N)C[C@@H](F)C2)cc2nc(-c3cc4cccnc4n3CC3CC3)n(Cc3ccnn3C)c12` [Example 518, (3R,5R)-1-{2-[1-(cyclopropylmethyl)-1H-pyrrolo[2,3-b]pyridin-2-yl]-7-methoxy-1-[(1-methyl-1H-pyrazol-5-yl)methyl]-1H-1,3-benzodiazole-5-carbonyl}-5-fluoropiperidin-3-amine], 0.606 µM.
For `COc1cc(C(=O)N2CCC[C@@H](N)C2)cc2nc(-c3cc4cccnc4n3CC3CC3)n(CCNS(C)(=O)=O)c12` [Example 292, N-(2-{5-[(3R)-3-aminopiperidine-1-carbonyl]-2-[1-(cyclopropylmethyl)-1H-pyrrolo[2,3-b]pyridin-2-yl]-7-methoxy-1H-1,3-benzodiazol-1-yl}ethyl)methanesulfonamide], the IC50 stood at 2.06 µM.
For the molecule `COc1cc(C(=O)N2C[C@H](N)C[C@@H](F)C2)cc2nc(-c3cc4ccccc4n3CC3CC3)n(Cc3cccs3)c12` [Example 255, (3R,5R)-1-{2-[1-(cyclopropylmethyl)-1H-indol-2-yl]-7-methoxy-1-[(thiophen-2-yl)methyl]-1H-1,3-benzodiazole-5-carbonyl}-5-fluoropiperidin-3-amine], the IC50 came out at 0.037 µM.
With `COc1cc(C(=O)N2CC3CCC2[C@@H]3N)cc2nc(-c3cc4cccnc4n3CC3CC3)n(CC3CCN(C(=O)c4ccnc(C#N)c4)CC3)c12` (stereo partly drawn) [Example 200, 4-[4-({5-[(1R,4R,7R)-7-amino-2-azabicyclo[2.2.1]heptane-2-(cyclopropylmethyl)-1H-pyrrolo[2,3-b]pyridin-2-yl]-7-methoxy-1H-1,3-benzodiazol-1-yl}methyl)piperidine-1-carbonyl]pyridine-2-carbonitrile] the figure was 0.198 µM.
Consider `COc1cc(C(=O)N2CC3CCC2[C@@H]3N)cc2nc(-c3cccn3CC3CC3)n(CC3CN(c4cncc(C#N)c4)C3)c12` (stereo partly shown) [Example 317], for which the IC50 amounted to 1.19 µM.
